Measured values: US20150224190A1, “Combination of a phosphoinositide 3-kinase inhibitor and an inhibitor of the IL-8/CXCR interaction” (priority 2012, published 2015)

Legend:
[1] = tested on: pS6; assay: Target inhibition after single doses: pS6 levels in breast cancer lines; format: cell-based, human; settings: up to 20 hours after treatment, MDA 468, MDA 231 LM2 and mouse 4T-1 breast cancer lines
Experimental: (§1) MDA231, lung metastatic subline MDA231 LM2 (Minn et al., 2005) and SUM159 human breast cancer cells, as well as the Balb/c tumor-derived mammary cancer lines 4T-1 and 168FARN (Aslakson and Miller, 1992), were propagated as previously described. All other cell lines were obtained from and were cultured according to the protocols of ATCC. For treatment with inhibitors, cells were synchronized without serum overnight and then supplemented with culture medium containing the inhibitor(s). For experiments with doxycycline-inducible shRNAs, 500 ng/ml of doxycycline (Sigma) was added to the medium and experiments performed 48 h later. Cell viability assays, cell cycle and cell death measurements were performed at 0.5% FCS in order to avoid masking effects of growth factors present under full-serum conditions.
(§2) Cells for Western Blotting and ELISA were lysed with RIPA buffer. […]
(§3) The present inventors applied single doses of COMPOUND A, a dual PI3K and mTOR inhibitor, and analyzed target inhibition and potential signaling pathway crosstalks after 2, 4, 8 and 20 h hours of treatment. […] While RAD001 readily activated JAK2 starting at 4 hours of treatment, they observed a later response with BKM120 treatment starting at 8 hours after adding the compound. […]

[2] = tested on: pAKT; assay: Target inhibition after single doses: pAKT levels in breast cancer lines; format: cell-based, human; settings: up to 20 hours after treatment, MDA 468, MDA 231 LM2 and mouse 4T-1 breast cancer lines
Experimental: as §1, §2, §3

[3] = tested on: JAK2/STAT5; assay: JAK2/STAT5 phosphorylation in breast cancer cell lines (pJAK2 ELISA, pSTAT5 immunoblot); format: cell-based, human; settings: in vitro, after 4 hours-8 hours of treatment
Experimental: as §1
Cells for Western Blotting and ELISA were lysed with RIPA buffer. Xenograft lysates were prepared by lysing kryo-homogenized tumor powder in RIPA buffer (50 mM Tris-HCl pH 8, 150 mM NaCl, 1% NP-40, 0.5% sodium deoxycholate, 0.1% SDS. RIPA was supplemented with 1× protease inhibitor cocktail (Complete Mini, Roche), 0.2 mmol/L sodium-vanadate, 20 mM sodium fluoride and 1 mmol/L phenylmethylsulfonyl fluoride. For IRS-1 immunoprecipitation, cell lysates containing 500-1000 μg of protein were incubated with 1 μg of antibody and 20-50 μl of protein A-Sepharose beads (Zymed Laboratories, Inc., South San Francisco, Calif.) overnight at 4° C. Immunoprecipitates or whole cell lysates (30-80 μg) were subjected to SDS-PAGE, transferred to PVDF membranes (Immobilon-P, Millipore) and blocked for 1 hr at room temperature with 5% milk in PBS-0.1% Tween 20. Membranes were then incubated overnight with antibodies as indicated and exposed to secondary HRP-coupled anti-mouse or -rabbit antibody at 1:5-10,000 for 1 h at room temperature. Proteins were visualized using an ECL kit (Amersham) or an enhanced chemiluminescence detection system (Pierce Biotechnology). In each of the studies presented, the results shown are typical of at least three independent experiments. The following antibodies were used: anti-JAK2 (Cell Signaling), anti-JAK1 (Cell Signaling), anti-pSTAT5 (Tyr694, Cell Signaling), anti-STAT5 (STAT5A&B, Cell Signaling), anti-STAT3 (Cell Signaling), anti-pSTAT3 (Tyr705, Cell Signaling), anti-AKT pan (Cell Signaling), anti-pAKT (Thr308 and Ser473, Cell Signaling), anti-ERK2 (Santa Cruz), anti-S6 (Cell Signaling), anti-pS6 (Ser235/236, Cell Signaling), anti-PARP (Cell Signaling), anti-MCL1 (Cell Signaling), anti-BIM (EL, L and S isoforms, Cell Signaling), anti-pIGF1R/plnsR (Invitrogen), anti-IGF1Rbeta (Cell Signaling), anti-InsRbeta (Santa Cruz), anti-IRS1 (Upstate), anti-plRS1 (Tyr612, Calbiochem).
For assessing pJAK2 levels, an ELISA assay (Tyr1007/1008, Invitrogen) was applied because of cross-reactivity of all pJAK2 antibodies tested. Interleukin-8 levels in RIPA lysates, cell culture supernatants and mouse tail vein blood plasma were measured by ELISA, as well (Biolegend). […]
as §3

[4] = tested on: pSTAT3; assay: pSTAT3 levels on treatment; format: cell-based; settings: BEZ235 treatment
Experimental: Cells for Western Blotting and ELISA were lysed with RIPA buffer. Xenograft lysates were prepared by lysing kryo-homogenized tumor powder in RIPA buffer (50 mM Tris-HCl pH 8, 150 mM NaCl, 1% NP-40, 0.5% sodium deoxycholate, 0.1% SDS. RIPA was supplemented with 1× protease inhibitor cocktail (Complete Mini, Roche), 0.2 mmol/L sodium-vanadate, 20 mM sodium fluoride and 1 mmol/L phenylmethylsulfonyl fluoride. For IRS-1 immunoprecipitation, cell lysates containing 500-1000 μg of protein were incubated with 1 μg of antibody and 20-50 μl of protein A-Sepharose beads (Zymed Laboratories, Inc., South San Francisco, Calif.) overnight at 4° C. Immunoprecipitates or whole cell lysates (30-80 μg) were subjected to SDS-PAGE, transferred to PVDF membranes (Immobilon-P, Millipore) and blocked for 1 hr at room temperature with 5% milk in PBS-0.1% Tween 20. […]
as §3

Cn1c(=O)n(-c2ccc(C(C)(C)C#N)cc2)c2c3cc(-c4cnc5ccccc5c4)ccc3ncc21 [COMPOUND A, 2-methyl-2-[4-(3-methyl-2-oxo-8-quinolin-3-yl-2,3-dihydro-imidazo[4,5-c]quinolin-1-yl)-phenyl]-propionitrile] was tested, and the pS6 levels [1] was “completely blocked”, the pAKT levels [2] was “reduced” and the pJAK2 [3] was “considerable upregulation”. For the same molecule, the pSTAT5 [3] was “considerable upregulation” and the “Levels of pSTAT3” value [4] was “largely unaffected”.
